This note sets out measurements from patent US20160355530A1, “HEPATITIS C INHIBITORS AND USES THEREOF” (AbbVie Inc., priority 2010, published 2016).

Assay [1] relates to chimeric replicon with genotype 4a NS5B. The assay can be described thus: microbe, parasite or virus in culture. The following applies: Hepatitis C virus, read-out: 4a chimera 5% FBS EC50. It is filed as cell-based, HCV genotype 4a.
Assay [2] concerns HCV NS5B polymerase 1a-H77-C316Y. The assay can be described thus: biochemical. More on the design: species or system HCV genotype 1a. The following applies: ratio of enzyme IC50s, 1a H77-C316Y / 1a H77. A digest of the protocol: (§1)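 Recombinant NS5B (residues 1–570, His-tagged, E. coli-expressed) copied 5 nM of a 2.1 kb HCV 1b negative-strand 3′-end RNA template with 20 μM CTP, 20 μM ATP and 0.284 μM [3H]UTP for 3 h at 30 °C. Spermine-precipitated RNA was filter-captured and counted, and IC50 was fitted by nonlinear regression.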

Assay [3] concerns the target T1, HCV NS5B polymerase 1a-H77 (Hepatitis C virus genotype 1a, UniProt P27958).
T1 construct: six-histidine tag; made in house; host or cells: E. coli
Kind of assay: biochemical. More on the design: species or system HCV genotype 1a. The method, boiled down: as §1

For assay [4], the target named is T2, HCV NS5B polymerase 1a-H77-C316Y (Hepatitis C virus genotype 1a, UniProt P27958, C2736Y).
T2 construct: six-histidine tag; made in house; host or cells: E. coli
T2 sequence (P27958 2421-2990 C2736Y): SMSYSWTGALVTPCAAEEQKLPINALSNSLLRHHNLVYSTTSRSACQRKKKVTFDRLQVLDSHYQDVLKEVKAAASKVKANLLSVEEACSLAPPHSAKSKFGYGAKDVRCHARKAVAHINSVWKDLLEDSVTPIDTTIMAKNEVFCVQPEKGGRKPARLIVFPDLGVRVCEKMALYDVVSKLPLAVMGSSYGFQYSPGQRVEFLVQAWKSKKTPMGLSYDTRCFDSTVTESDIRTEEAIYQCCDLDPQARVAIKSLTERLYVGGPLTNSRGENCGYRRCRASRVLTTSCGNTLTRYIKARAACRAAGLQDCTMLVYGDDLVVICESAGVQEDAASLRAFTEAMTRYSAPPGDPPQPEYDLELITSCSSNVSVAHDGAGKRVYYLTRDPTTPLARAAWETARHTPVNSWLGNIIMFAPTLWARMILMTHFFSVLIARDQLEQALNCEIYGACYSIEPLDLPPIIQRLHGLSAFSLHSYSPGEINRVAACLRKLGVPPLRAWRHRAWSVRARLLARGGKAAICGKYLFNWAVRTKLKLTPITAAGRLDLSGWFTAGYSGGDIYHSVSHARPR
The assay can be described thus: biochemical. Also on record: species or system HCV genotype 1a. A digest of the protocol:
as §1

In assay [5] the target is T3, HCV NS5B polymerase 1b BK strain (Hepatitis C virus genotype 1b, UniProt P26663).
T3 construct: six-histidine tag; made in house; host or cells: E. coli
T3 sequence (P26663 2420-2989): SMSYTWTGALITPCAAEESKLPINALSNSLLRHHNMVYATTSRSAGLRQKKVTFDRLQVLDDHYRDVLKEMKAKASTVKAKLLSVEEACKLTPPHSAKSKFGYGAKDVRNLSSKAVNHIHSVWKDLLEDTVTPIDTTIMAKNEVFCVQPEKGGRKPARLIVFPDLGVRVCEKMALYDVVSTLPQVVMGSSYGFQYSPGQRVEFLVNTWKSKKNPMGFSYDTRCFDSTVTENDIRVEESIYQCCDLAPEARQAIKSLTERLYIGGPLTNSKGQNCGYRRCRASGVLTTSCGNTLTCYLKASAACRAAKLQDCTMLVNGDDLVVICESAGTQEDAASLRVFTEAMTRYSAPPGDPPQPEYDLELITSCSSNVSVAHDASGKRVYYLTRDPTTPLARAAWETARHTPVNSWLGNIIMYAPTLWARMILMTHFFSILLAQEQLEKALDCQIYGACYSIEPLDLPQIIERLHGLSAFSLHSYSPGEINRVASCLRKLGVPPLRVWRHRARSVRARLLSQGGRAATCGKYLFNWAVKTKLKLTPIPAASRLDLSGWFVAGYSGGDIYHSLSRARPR
Kind of assay: HCV NS5B polymerase enzymatic inhibition assay, strain 1b BK. It is filed as biochemical. A digest of the protocol:
as §1

In assay [6] the test system is chimeric replicon with 2a-J6CF-derived NS5B. Kind of assay: microbe, parasite or virus in culture. The following applies: Hepatitis C virus, read-out: 2a chimera 5% FBS EC50. It is filed as cell-based, HCV genotype 2a.
Assay [7] relates to chimeric replicon with genotype 3a NS5B. Kind of assay: microbe, parasite or virus in culture. It is filed as cell-based, HCV genotype 3a. The following applies: Hepatitis C virus, read-out: 3a chimera 5% FBS EC50.
Assay [8] has as its system HCV 1b-BB7 subgenomic replicon. Kind of assay: microbe, parasite or virus in culture. In kind it is cell-based, HCV genotype 1b. The note with it: Hepatitis C virus.
Assay [9] concerns chimeric replicon with genotype 2b NS5B. Kind of assay: microbe, parasite or virus in culture. It is filed as cell-based, HCV genotype 2b. The following applies: Hepatitis C virus, read-out: 2b chimera 5% FBS EC50.
Assay [10] deals with HCV 1a-H77 subgenomic replicon. The assay can be described thus: microbe, parasite or virus in culture. In kind it is cell-based, HCV genotype 1a. The following applies: Hepatitis C virus.
Assay [11] has as its system HCV 1a-H77 transient subgenomic replicon in Huh-7 derived cell line. The assay can be described thus: microbe, parasite or virus in culture. In kind it is cell-based, HCV genotype 1a. The note with it: Hepatitis C virus. A digest of the protocol: (§2)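 Transient format: T7-transcribed replicon RNA lacking Neo, electroporated into Huh-7-derived cells (5×10^3/well), input RNA checked by luciferase at 4 h. Three-fold compound dilution series, 0.5% DMSO, 4 days at 37° C; EC50 from luciferase signal in lysed cells.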

In assay [12] the test system is HCV 1a-H77-C316Y transient subgenomic replicon in Huh-7 derived cell line. Kind of assay: microbe, parasite or virus in culture. It is filed as cell-based, HCV genotype 1a. The following applies: for pEC50: Hepatitis C virus, Huh-7, read-out: Transient Replicon 1a H77-C316Y 5% FBS EC50; for Transient Replicon Fold Resistance C316Y/1a: ratio of transient replicon EC50s, C316Y / 1a H77. The method, boiled down: as §2
(In general: Replicon systems follow genome replication, usually without infectious particles.)

[13] abbreviates: enzyme, strain 1a H77, read-out: HCV Polymerase Strain 1a H77 IC50.
[14] abbreviates: enzyme, strain 1b BK, read-out: HCV Polymerase Strain 1b BK IC50.
Setting [15] is: stable replicon, strain 1b BB7, 5% FBS + 40% human plasma, read-out: 1b BB7 5% FBS + 40% Human Plasma EC50.
[16] abbreviates: stable replicon, strain 1b BB7, 5% FBS, no human plasma, read-out: 1b BB7 5% FBS EC50.
The mark [17] stands for this setting: stable replicon, strain 1b BB7, 5% FBS, read-out: 1b BB7 5% FBS EC50.
The mark [18] stands for this setting: stable replicon, 5% FBS, absence of human plasma, read-out: Stable Replicon 1a H77 5% FBS EC50.
The mark [19] stands for this setting: stable replicon, strain 1a H77, 5% FBS + 40% human plasma, read-out: 1a H77 5% FBS + 40% Human Plasma EC50.
Where [20] appears, read: stable replicon, strain 1a H77, 5% FBS, no human plasma, read-out: 1a H77 5% FBS EC50.
The mark [21] stands for this setting: stable replicon, strain 1a H77, 5% FBS, read-out: 1a H77 5% FBS EC50.
The mark [22] stands for this setting: Huh-7, transient replicon, 5% FBS, read-out: Transient Replicon 1a H77 5% FBS EC50.

pEC50, pIC50: −log10 of the molar value. Read-outs that look alike come from different tables or passages of the source.

T1 sequence (P27958 2421-2990): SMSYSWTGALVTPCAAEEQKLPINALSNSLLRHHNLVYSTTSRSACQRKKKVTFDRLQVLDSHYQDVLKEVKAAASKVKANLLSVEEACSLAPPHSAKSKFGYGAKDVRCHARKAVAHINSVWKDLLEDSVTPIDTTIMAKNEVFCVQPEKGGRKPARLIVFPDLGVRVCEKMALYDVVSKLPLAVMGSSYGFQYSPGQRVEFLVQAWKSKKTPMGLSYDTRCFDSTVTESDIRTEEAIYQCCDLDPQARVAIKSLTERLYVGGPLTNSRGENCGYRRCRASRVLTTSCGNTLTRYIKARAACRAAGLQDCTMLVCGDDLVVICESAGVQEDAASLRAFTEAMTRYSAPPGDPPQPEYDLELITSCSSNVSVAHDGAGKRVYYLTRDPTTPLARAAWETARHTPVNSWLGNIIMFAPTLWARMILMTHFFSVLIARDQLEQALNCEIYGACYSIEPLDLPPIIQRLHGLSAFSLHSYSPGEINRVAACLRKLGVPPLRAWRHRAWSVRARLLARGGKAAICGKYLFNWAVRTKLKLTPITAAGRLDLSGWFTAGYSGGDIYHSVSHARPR

Consider `Cc1c[nH]c(-c2c(-c3ccc(F)cc3)oc3cc(N(CCO)S(C)(=O)=O)c(C4CC4)cc23)n1` [Example 189, N-[5-cyclopropyl-2-(4-fluorophenyl)-3-(4-methyl-1H-imidazol-2-yl)-1-benzofuran-6-yl]-N-(2-hydroxyethyl)methanesulfonamide], for which the pEC50 (in general, −log10 of the EC50, conventionally taken in molar units) is 5.53 in assay [1]; 5.98 in [6]; 6.64 in assay [7]; 6.35 in [8] (setting [15]); 6.94 in assay [8] (setting [16]); 6.94 in [8] (setting [17]). In addition, the pEC50 in assay [9] was 5.73; in [10] (setting [18]) it was 6.79; in [10] (setting [19]), 6.11; in assay [10] (setting [20]), 6.79; in assay [10] (setting [21]), 6.79; in assay [11] (setting [22]), 6.86. The pEC50 in [12] is 6.49. The “C316Y/1a Fold Resistance” value in assay [2] amounted to 18 fold. Further, the pIC50 – broadly, −log10 of the IC50, conventionally taken in molar units – in [3] (setting [13]) is 7.59; in assay [4] it was 6.34; in assay [5] (setting [14]), 6.33. In addition, the “Transient Replicon Fold Resistance C316Y/1a” value in assay [12] is recorded as 2 fold.

For `COc1ccc(CN(c2cc3oc(-c4ccc(F)cc4)c(C4=NOCN4)c3cc2C2CC2)S(C)(=O)=O)cc1` [Example 145, N-[5-cyclopropyl-3-(4,5-dihydro-1,2,4-oxadiazol-3-yl)-2-(4-fluorophenyl)-1-benzofuran-6-yl]-N-(4-methoxybenzyl)methanesulfonamide], the pEC50 in [1] was below 6.00; in assay [6], 6.43; in assay [7], 6.79; in assay [8] (setting [15]), 6.00; in [8] (setting [16]), 7.10; in assay [8] (setting [17]), 7.10. In addition, the pEC50 in [9] was 6.08; in [10] (setting [18]) it was 6.87; in assay [10] (setting [19]), 6.00; in assay [10] (setting [20]) it was 6.87; in assay [10] (setting [21]), 6.87; in assay [11] (setting [22]), 7.00. Besides, the pEC50 in [12] was 6.00. In addition, in assay [2], the “C316Y/1a Fold Resistance” value is 333 fold. Besides, the results for the pIC50 in assay [3] (setting [13]), in [4] and in assay [5] (setting [14]) were 8.22, 5.70 and 7.46, respectively. In addition, the “Transient Replicon Fold Resistance C316Y/1a” value in assay [12] turned out to be 10 fold.

Regarding `CS(=O)(=O)CCCCN(c1cc2oc(-c3ccc(F)cc3)c(C3=NOCN3)c2cc1C1CC1)S(C)(=O)=O` [Example 148, N-[5-cyclopropyl-3-(4,5-dihydro-1,2,4-oxadiazol-3-yl)-2-(4-fluorophenyl)-1-benzofuran-6-yl]-N-[4-(methylsulfonyl)butyl]methanesulfonamide], the pEC50 is 7.40 in assay [1]; 7.34 in [6]; 8.09 in assay [7]; 6.16 in [8] (setting [15]); 8.40 in assay [8] (setting [16]); 8.40 in assay [8] (setting [17]). The pEC50 was 7.49 in [9]; 8.39 in assay [10] (setting [18]); 5.89 in assay [10] (setting [19]); 8.39 in [10] (setting [20]); 8.39 in [10] (setting [21]); 8.28 in assay [11] (setting [22]). Further, the pEC50 in assay [12] is 6.96. In [2], the “C316Y/1a Fold Resistance” value stood at 8 fold. Further, the pIC50 in [3] (setting [13]) is 8.41; in [4], 7.52; in [5] (setting [14]), 8.22. In assay [12], the “Transient Replicon Fold Resistance C316Y/1a” value is listed as 21 fold.

As to `CCOC(=O)CCCCN(c1cc2oc(-c3ccc(F)cc3)c(-c3ncc[nH]3)c2cc1C1CC1)S(C)(=O)=O` [Example 50, ethyl 5-{[5-cyclopropyl-2-(4-fluorophenyl)-3-(1H-imidazol-2-yl)-1-benzofuran-6-yl](methylsulfonyl)amino}pentanoate], the pEC50 in [1] is 6.83; in assay [6], 7.04; in assay [7], 7.82; in assay [8] (setting [15]), 7.17; in [8] (setting [16]) it was 8.06; in assay [8] (setting [17]) it was 8.06. Also, the pEC50 in assay [9] was 6.83; in assay [10] (setting [18]), 7.91; in assay [10] (setting [19]) it was 7.01; in [10] (setting [20]), 7.91; in assay [10] (setting [21]) it was 7.91; in assay [11] (setting [22]), 8.02. In addition, in [12], the pEC50 is 6.77. Besides, the “C316Y/1a Fold Resistance” value in assay [2] worked out at 27 fold. The pIC50 is 8.41 in [3] (setting [13]), 6.98 in assay [4] and 7.92 in assay [5] (setting [14]). In addition, the “Transient Replicon Fold Resistance C316Y/1a” value in assay [12] is listed as 18 fold.

As for `CS(=O)(=O)N(CCC1CCS(=O)(=O)C1)c1cc2oc(-c3ccc(F)cc3)c(-c3ncc[nH]3)c2cc1C1CC1` (stereo not shown) [Example 61, N-[5-cyclopropyl-2-(4-fluorophenyl)-3-(1H-imidazol-2-yl)-1-benzofuran-6-yl]-N-[2-(1,1-dioxidotetrahydrothiophen-3-yl)ethyl]methanesulfonamide], the pEC50 in assay [1] was 7.74; in assay [6], 7.39; in [7], 8.21; in assay [8] (read-out: 1b BB7 5% FBS + 40% Human Plasma EC50), 7.74; in assay [8] (read-out: 1b BB7 5% FBS EC50), 8.52; in assay [9], 7.52. Further, the pEC50 was 7.14 in assay [10] (read-out: 1a H77 5% FBS + 40% Human Plasma EC50); 8.27 in assay [10] (read-out: 1a H77 5% FBS EC50); 8.27 in [10] (read-out: Stable Replicon 1a H77 5% FBS EC50); 8.44 in assay [11] (Huh-7, read-out: Transient Replicon 1a H77 5% FBS EC50); 7.34 in [12]. Also, the “C316Y/1a Fold Resistance” value in assay [2] was 9 fold. The figures for the pIC50 in [3], in assay [4] and in assay [5] were 8.05, 7.12 and 7.80, respectively. Further, in [12], the “Transient Replicon Fold Resistance C316Y/1a” value came to 13 fold.

Regarding `CS(=O)(=O)N(CCCc1cc(O)no1)c1cc2oc(-c3ccc(F)cc3)c(-c3ncc[nH]3)c2cc1C1CC1` [Example 7, N-[5-cyclopropyl-2-(4-fluorophenyl)-3-(1H-imidazol-2-yl)-1-benzofuran-6-yl]-N-[3-(3-hydroxy-1,2-oxazol-5-yl)propyl]methanesulfonamide], the pEC50 in assay [1] is 6.79; in assay [6], 6.66; in assay [7], 7.95; in assay [8] (setting [15]), 6.97; in [8] (setting [16]), 8.24; in [8] (setting [17]), 8.24. In addition, the pEC50 in assay [9] is 6.75; in [10] (setting [18]), 7.82; in assay [10] (setting [19]) it was 6.95; in [10] (setting [20]), 7.82; in assay [10] (setting [21]), 7.82; in assay [11] (setting [22]), 8.00. Also, the pEC50 in assay [12] was 6.49. Also, in assay [2], the “C316Y/1a Fold Resistance” value is 4 fold. Further, the pIC50 in [3] (setting [13]) is 8.52; in assay [4], 7.92; in assay [5] (setting [14]), 7.96. Besides, in [12], the “Transient Replicon Fold Resistance C316Y/1a” value was 33 fold.
